Reference: US20020198142A1, “Cyclopeptide derivatives” (Merck Patent GmbH, priority 1997, published 2002)

System: mouse MC3T3 H1 osteoblast cultures
Assay: Cell adhesion test: adhesion of osteoblast cultures in vitro to RGD peptide-coated material surfaces
Format: cell-based
Details: 50,000 cells/cm^2 inoculated, serum-free medium, 37°/95% atmospheric humidity, one hour, adhered cells/inoculated cells x 100
Procedure: Example of Cell Adhesion Test
The adhesion of mouse MC3T3 H1 osteoblast cultures in vitro to RGD peptide-coated material surfaces was investigated. In the course of this, 50,000 cells/cm^2 were inoculated and, after incubation in serum-free medium at 37°/95% atmospheric humidity for one hour, the proportion of adherent cells was determined.
Cell adhesion rate [%]=adhered cells/inoculated cells x 100

Row | Substance | cell adhesion rate [%]
1 | cyclo-(Arg-Gly-Asp-D-Phe-Lys(N^ε—CO—(CH2)5—NH—CO—(CH2)5—NH—CO—CH═CH2)) | 92.4%
2 | cyclo-(Arg-Gly-Asp-D-Phe-Lys(N^ε—CO—(CH2)5—NH—CO—CH═CH2)) | 11.3%
3 | cyclo-(Arg-Gly-Asp-D-Phe-Lys(N^ε—CO—CH2—O—CH2CH2—O—CH2CH2—NH—CO—(CH2)5—NH—CO—CH═CH2)) | 109.0%
4 | cyclo-(Arg-Gly-Asp-D-Phe-Lys(N^ε—CO—CH2CH2CO—NH—CH2CH2—SH)) | 86.2%
5 | cyclo-(Arg-Gly-Asp-D-Phe-Lys(N^ε—(CO—CH2—O—CH2CH2—O—CH2CH2—NH)2—CO—(CH2)5—NH—CO—CH═CH2)) | 110.5%
